# ChEMBL document CHEMBL5537161, “Structure-Guided Design, Synthesis, and Antivirulence Assessment of Covalent Staphylococcus aureus Sortase A Inhibitors” (J Med Chem, 2024)
# Calls of active or inactive are those of the source. The rule behind the calls is not given here.
# Assays:
# [1] = Toxicity in Galleria mellonella assessed as change in color at 60 mg/kg measured after 120 hrs; type: organism-based; details: in vivo
# Sortase A [2] = target: T1, Sortase A (Staphylococcus aureus, UniProt Q9S446, N24DEL); assay: Inhibition of Staphylococcus aureus Sortase A N24 deletion mutant transpeptidation using IsdA64-323 as substrate preincubated for 20 mins followed by substrate addition and measured after 1.5 hrs by SDS-PAGE analysis
# Sortase A [3] = target: T1, Sortase A; assay: Inhibition of Staphylococcus aureus sortase A N24 deletion mutant using Abz-LPATG-Dnp as substrate preincubated for 20 mins followed by substrate addition by FRET assay
# Staphylococcus aureus [4] = assay: Antibacterial activity against Staphylococcus aureus Newman infected in Galleria mellonella assessed as increase in larvae survival at 30 mg/kg measured every 24 hrs for 5 days; type: functional; details: time 5 day
# Streptococcus pyogenes [5] = assay: Inhibition of Streptococcus pyogenes Sortase A N81 deletion mutant transpeptidation assessed as thermal stabilization by measuring change in melting temperature at 80 uM incubated for 15 mins by Nano-DSF assay
# Staphylococcus aureus [6] = assay: Antibacterial activity against Staphylococcus aureus USA300 infected in Galleria mellonella assessed as increase in larvae survival at 30 mg/kg measured every 24 hrs for 5 days; type: functional; details: time 5 day
# Staphylococcus aureus [7] = assay: Bactericidal activity against Staphylococcus aureus Newman assessed as reduction in bacterial growth incubated for 16 to 18 hrs; type: functional; details: time 16-18 hrs
# Staphylococcus aureus [8] = assay: Inhibition of Staphylococcus aureus Newman biofilm formation incubated for 14 hrs by Crystal violet staining based assay; type: functional, organism-based; details: dose 12.5-100 µM
# Streptococcus pyogenes [9] = assay: Irreversible inhibition of Streptococcus pyogenes Sortase A N81 deletion mutant preincubated with compound for 1 to 60 mins followed by substrate addition by FRET based assay; details: time 1-60 min, TDE = time-dependent effect
# [10] = Toxicity in Galleria mellonella larvae assessed as change in appearance at 60 mg/kg measured after 120 hrs; type: organism-based; details: in vivo
# [11] = test system: Sortase A (Staphylococcus aureus), Q9S446 [UNDEFINED MUTATION]; assay: Inhibition of Staphylococcus aureus Sortase A N24 deletion mutant transpeptidation assessed as thermal stabilization by measuring change in melting temperature at 80 uM incubated for 15 mins by Nano-DSF assay
# Cathepsin B = Cathepsin B (Homo sapiens, UniProt P07858); assay: Inhibition of cathepsin B (unknown origin) at 2 uM using Cbz-Phe-Arg-AMC as substrate preincubated for 5 mins followed by substrate addition by fluorescence based assay
# Procathepsin L = Procathepsin L (Homo sapiens, UniProt P07711); assay: Inhibition of cathepsin L (unknown origin) at 2 uM using Cbz-Phe-Arg-AMC as substrate preincubated for 5 mins followed by substrate addition by fluorescence based assay
# Staphylococcus aureus [12] = assay: Antibacterial activity against Staphylococcus aureus USA300 assessed as reduction in bacterial growth at 100 uM incubated for 14 hrs by microplate reader assay; type: functional, organism-based
# Staphylococcus aureus [13] = assay: Antivirulence activity against Staphylococcus aureus Newman assessed as reduction in abundance of Sbi at 6.25 to 100 uM by Western blotting analysis; type: functional, organism-based; details: dose 6.25-100 µM
# Staphylococcus aureus [14] = assay: Antivirulence activity against Staphylococcus aureus Newman assessed as reduction in abundance of anchored SpA in bacterial envelope by Western blotting analysis; type: functional, organism-based; details: dose 6.25-100 µM
# [15] = test system: Sortase A (Staphylococcus aureus), Q9S446 [UNDEFINED MUTATION]; assay: Irreversible inhibition of Staphylococcus aureus sortase A N24 deletion mutant preincubated with compound for 1 to 60 mins followed by substrate addition by FRET based assay; details: time 1-60 min, TDE = time-dependent effect
# Staphylococcus aureus [16] = assay: Antibacterial activity against Staphylococcus aureus USA300 infected in Galleria mellonella assessed as reduction in melanization at 200 uM pretreated with compound followed by larvae infection measured after 24 hrs; type: functional, organism-based
# [17] = Toxicity in Galleria mellonella larvae assessed as effect on survival at 60 mg/kg measured after 120 hrs; type: organism-based; details: in vivo
# Staphylococcus aureus [18] = assay: Antibacterial activity against Staphylococcus aureus Newman infected in Galleria mellonella assessed as reduction in melanization at 200 uM pretreated with compound followed by larvae infection measured after 24 hrs; type: functional, organism-based
# Staphylococcus aureus [19] = assay: Inhibition of Staphylococcus aureus USA300 biofilm formation incubated for 14 hrs by Crystal violet staining based assay; type: functional, organism-based; details: dose 12.5-100 µM
# Staphylococcus aureus [20] = assay: Antibacterial activity against Staphylococcus aureus Newman assessed as reduction in bacterial growth at 100 uM incubated for 14 hrs by microplate reader assay; type: functional, organism-based
# [21] = Inhibition of Streptococcus pyogenes Sortase A N81 deletion mutant transpeptidation using IsdA64-323 as substrate preincubated for 20 mins followed by substrate addition and measured after 1.5 hrs by SDS-PAGE analysis
# Chain of Procathepsin L (P07711 114-333 limits assumed): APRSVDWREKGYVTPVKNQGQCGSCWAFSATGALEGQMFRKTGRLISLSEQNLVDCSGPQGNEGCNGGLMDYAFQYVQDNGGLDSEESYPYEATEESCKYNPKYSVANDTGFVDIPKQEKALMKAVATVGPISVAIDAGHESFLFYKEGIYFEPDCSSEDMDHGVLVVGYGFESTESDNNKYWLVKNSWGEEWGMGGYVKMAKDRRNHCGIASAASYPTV
smiles,measurement,setting,value
COc1ccc(/C=C/C=C2C(=O)NC(=O)NC2=O)cc1,Activity,[1],Non-Toxic
same,IC50,Sortase A [2],7.4 µM
same,IC50,Sortase A [3],1 µM
same,Activity,Staphylococcus aureus [4],<40%
same,ΔTm,Streptococcus pyogenes [5],9.3 °C
same,Activity,Staphylococcus aureus [6],40%
same,MIC,Staphylococcus aureus [7],> 128 µg/mL
same,inhibition,Staphylococcus aureus [8],Dose-Dependent Effect
same,inhibition,Streptococcus pyogenes [9],Tde
same,Activity,[10],Non-Toxic
same,ΔTm,[11],4.5 °C
same,inhibition,Cathepsin B,Active
same,inhibition,Procathepsin L,Active
same,Activity,Staphylococcus aureus [12],inactive
same,Activity,Staphylococcus aureus [13],Active
same,Activity,Staphylococcus aureus [14],Active
same,inhibition,[15],Tde
same,Activity,Staphylococcus aureus [16],Active
same,Activity,[17],Non-Toxic
same,Activity,Staphylococcus aureus [18],Active
same,inhibition,Staphylococcus aureus [19],Dose-Dependent Effect
same,Activity,Staphylococcus aureus [20],inactive
same,IC50,[21],3.4 µM
O=C1NC(=O)C(=C/C=C/c2ccc(OCc3ccccc3)cc2)C(=O)N1,IC50,Sortase A [2],8.9 µM
same,IC50,Sortase A [3],0.5 µM
same,MIC,Staphylococcus aureus [7],> 128 µg/mL
O=C1NC(=O)C(=C/C=C/c2ccc(OCc3cccnc3)cc2)C(=O)N1,IC50,Sortase A [3],> 50 µM
same,MIC,Staphylococcus aureus [7],> 128 µg/mL
N#Cc1ccc(COc2ccc(/C=C/C=C3C(=O)NC(=O)NC3=O)cc2)cc1,IC50,Sortase A [3],0.7 µM
same,MIC,Staphylococcus aureus [7],> 128 µg/mL
O=C(CNC(=O)OCc1ccccc1)NCC(=O)Oc1ccc(/C=C/C=C2C(=O)NC(=O)NC2=O)cc1,IC50,Sortase A [3],1.7 µM
same,MIC,Staphylococcus aureus [7],32 µg/mL
Cc1ccc(/C=C/C=C2C(=O)NC(=O)NC2=O)cc1,IC50,Sortase A [3],1 µM
same,MIC,Staphylococcus aureus [7],128 µg/mL
NC(=O)COc1ccc(/C=C/C=C2C(=O)NC(=O)NC2=O)cc1,IC50,Sortase A [3],0.9 µM
same,MIC,Staphylococcus aureus [7],> 128 µg/mL
O=C1NC(=O)C(=C/C=C/c2ccc(Cl)cc2)C(=O)N1,IC50,Sortase A [3],1 µM
same,MIC,Staphylococcus aureus [7],128 µg/mL
O=C1NC(=O)C(=C/C=C/c2cccc(Cl)c2)C(=O)N1,IC50,Sortase A [3],1 µM
same,MIC,Staphylococcus aureus [7],64 µg/mL
CC(C)CC=C1C(=O)NC(=O)NC1=O,IC50,Sortase A [3],> 50 µM
same,MIC,Staphylococcus aureus [7],> 128 µg/mL
CC(C)C[C@H](NC(=O)OCc1ccccc1)C(=O)Oc1ccc(/C=C/C=C2C(=O)NC(=O)NC2=O)cc1,IC50,Sortase A [3],5.6 µM
same,MIC,Staphylococcus aureus [7],64 µg/mL
O=C1NC(=O)C(=C/C=C/c2ccc(OC(=O)CNC(=O)OCc3ccccc3)cc2)C(=O)N1,IC50,Sortase A [3],1.8 µM
same,MIC,Staphylococcus aureus [7],> 128 µg/mL
O=C1NC(=O)C(=C/C=C/c2ccccc2Cl)C(=O)N1,IC50,Sortase A [3],2.1 µM
same,MIC,Staphylococcus aureus [7],128 µg/mL
O=C1NC(=O)C(=C/C=C/c2ccc([N+](=O)[O-])cc2)C(=O)N1,IC50,Sortase A [3],2 µM
same,MIC,Staphylococcus aureus [7],128 µg/mL
O=C1NC(=O)C(=C/C=C/c2ccccc2)C(=O)N1,IC50,Sortase A [2],8.2 µM
same,IC50,Sortase A [3],1.1 µM
same,MIC,Staphylococcus aureus [7],> 128 µg/mL
O=C1NC(=O)C(=CNc2ccc(Br)cc2)C(=O)N1,IC50,Sortase A [3],> 50 µM
same,MIC,Staphylococcus aureus [7],> 128 µg/mL
COc1ccc(/C=C/C=C2C(=O)c3ccccc3C2=O)cc1,IC50,Sortase A [3],> 50 µM
same,MIC,Staphylococcus aureus [7],> 128 µg/mL
O=C1NC(=O)C(=C/C=C/c2ccc(C(F)(F)F)cc2)C(=O)N1,IC50,Sortase A [3],1.4 µM
same,MIC,Staphylococcus aureus [7],64 µg/mL
COC(=O)COc1ccc(/C=C/C=C2C(=O)NC(=O)NC2=O)cc1,IC50,Sortase A [3],1 µM
same,MIC,Staphylococcus aureus [7],> 128 µg/mL
CN(C)c1ccc(/C=C/C=C2C(=O)NC(=O)NC2=O)cc1,IC50,Sortase A [3],> 50 µM
same,MIC,Staphylococcus aureus [7],> 128 µg/mL
CC(=O)Oc1ccc(/C=C/C=C2C(=O)NC(=O)NC2=O)cc1,IC50,Sortase A [3],1.8 µM
same,MIC,Staphylococcus aureus [7],> 128 µg/mL
O=C1NC(=O)C(=C/C=C/c2ccc(F)cc2)C(=O)N1,IC50,Sortase A [2],7.4 µM
same,IC50,Sortase A [3],1.3 µM
same,MIC,Staphylococcus aureus [7],> 128 µg/mL
O=C1NC(=O)C(=C/C=C/c2ccco2)C(=O)N1,IC50,Sortase A [3],1.4 µM
same,MIC,Staphylococcus aureus [7],> 128 µg/mL
CC(C)(C)c1ccc(COc2ccc(/C=C/C=C3C(=O)NC(=O)NC3=O)cc2)cc1,IC50,Sortase A [3],> 50 µM
same,MIC,Staphylococcus aureus [7],128 µg/mL
O=C1NC(=O)C(=C/C=C/c2ccc(OCc3ccc(OCc4ccccc4)cc3)cc2)C(=O)N1,IC50,Sortase A [3],> 50 µM
same,MIC,Staphylococcus aureus [7],> 128 µg/mL
COc1ncc(/C=C/C=C2C(=O)NC(=O)NC2=O)cn1,IC50,Sortase A [3],7.7 µM
same,MIC,Staphylococcus aureus [7],> 128 µg/mL
Cc1ccc(COc2ccc(/C=C/C=C3C(=O)NC(=O)NC3=O)cc2)cc1,IC50,Sortase A [3],1.1 µM
same,MIC,Staphylococcus aureus [7],> 128 µg/mL
